Source: paper PMC10794144, “A novel antibiotic class targeting the lipopolysaccharide transporter” (Nature, 2024)
Where two headings read alike, the source gives them in different places.

System: A. baumannii

## CN1C(=O)[C@H](CCCCN)NC(=O)[C@H](CCCN)NCc2cccnc2Sc2cccc(-c3ccc(C(=O)O)cc3)c2CNC(=O)[C@@H]1Cc1c[nH]c2ccccc12 [zosurabalpin]
ATCC 19606 clone 2E3, run AB19606_3280_MHB, evolved in MHB
  MIC_value: 8 µM
ATCC 19606 clone 2E6, run AB19606_3280_MHB, evolved in MHB
  MIC_value: 16 µM
ATCC 19606 clone 3D1, run AB19606_3280_MHB, evolved in MHB
  MIC_value: 2 µM
ATCC 19606 clone 3F1, run AB19606_3280_MHB, evolved in MHB
  MIC_value: 64 µM
ATCC 19606 clone 4C1, run AB19606_3280_HS, evolved in HS_MHB
  MIC_value: 4 µM
ATCC 19606 clone 4C2, run AB19606_3280_HS, evolved in HS_MHB
  MIC_value: 16 µM
ATCC 19606 clone 4C7, run AB19606_3280_HS, evolved in HS_MHB
  MIC_value: 64 µM
ATCC 19606 clone 5C4, run AB19606_3280_HS, evolved in HS_MHB
  MIC_value: 32 µM
ATCC 19606 clone 5E2, run AB19606_3280_HS, evolved in HS_MHB
  MIC_value: 16 µM
ATCC 19606 clone 5E3, run AB19606_3280_HS, evolved in HS_MHB
  MIC_value: 8 µM
ATCC 19606 clone 5E5, run AB19606_3280_HS, evolved in HS_MHB
  MIC_value: <2 µM
ATCC 19606 clone 5E6, run AB19606_3280_HS, evolved in HS_MHB
  MIC_value: 16 µM
ATCC 19606 clone 5E7, run AB19606_3280_HS, evolved in HS_MHB
  MIC_value: 8 µM
ATCC 19606 clone 5F1, run AB19606_3280_MHB, evolved in MHB
  MIC_value: >128 µM
ATCC 19606 clone 5F2, run AB19606_3280_MHB, evolved in MHB
  MIC_value: 16 µM
ATCC 19606 clone 5F3, run AB19606_3280_MHB, evolved in MHB
  MIC_value: 16 µM
ATCC 19606 clone 6E1, run AB19606_3280_HS, evolved in HS_MHB
  MIC_value: 8 µM
ROB08705 clone 1C1, run ABR05_3280_HS, evolved in HS_MHB
  MIC_value: 4 µM
ROB08705 clone 2C1, run ABR05_3280_MHB, evolved in MHB
  MIC_value: >32 µM
ROB08705 clone 2D1, run ABR05_3280_MHB, evolved in MHB
  MIC_value: 8 µM
ROB08705 clone 3B1, run ABR05_3280_HS, evolved in HS_MHB
  MIC_value: 4 µM
ROB08705 clone 3B1, run ABR05_3280_MHB, evolved in MHB
  MIC_value: 8 to 16 µM
ROB08705 clone 3B3, run ABR05_3280_HS, evolved in HS_MHB
  MIC_value: 4 to 8 µM
ROB08705 clone 3B4, run ABR05_3280_HS, evolved in HS_MHB
  MIC_value: 16 µM
ROB08705 clone 3B5, run ABR05_3280_HS, evolved in HS_MHB
  MIC_value: 2 µM
ROB08705 clone 3B6, run ABR05_3280_HS, evolved in HS_MHB
  MIC_value: 1 µM
ROB08705 clone 4B1, run ABR05_3280_HS, evolved in HS_MHB
  MIC_value: 128 µM
ROB08705 clone 4B2, run ABR05_3280_HS, evolved in HS_MHB
  MIC_value: 4 µM
ROB08705 clone 4D1, run ABR05_3280_MHB, evolved in MHB
  MIC_value: 4 µM
ROB08705 clone 5C2, run ABR05_3280_HS, evolved in HS_MHB
  MIC_value: 4 µM
ROB08705 clone 5C3, run ABR05_3280_HS, evolved in HS_MHB
  MIC_value: 32 µM
ROB08705 clone 5C5, run ABR05_3280_HS, evolved in HS_MHB
  MIC_value: 8 µM
ROB08706 clone 1D1, run ABR06_3280_MHB, evolved in MHB
  MIC_value: 32 to 64 µM
ROB08706 clone 1E1, run ABR06_3280_HS, evolved in HS_MHB
  MIC_value: 4 to 8 µM
ROB08706 clone 1E2, run ABR06_3280_HS, evolved in HS_MHB
  MIC_value: 64 µM
ROB08706 clone 2C1, run ABR06_3280_MHB, evolved in MHB
  MIC_value: 32 µM
ROB08706 clone 2C3, run ABR06_3280_MHB, evolved in MHB
  MIC_value: 4 µM
ROB08706 clone 2D1, run ABR06_3280_HS, evolved in HS_MHB
  MIC_value: 2 µM
ROB08706 clone 2D5, run ABR06_3280_HS, evolved in HS_MHB
  MIC_value: 4 µM
ROB08706 clone 2D6, run ABR06_3280_HS, evolved in HS_MHB
  MIC_value: 4 µM
ROB08706 clone 2D7, run ABR06_3280_HS, evolved in HS_MHB
  MIC_value: 2 µM
ROB08706 clone 2E1, run ABR06_3280_HS, evolved in HS_MHB
  MIC_value: 32 µM
ROB08706 clone 3B3, run ABR06_3280_MHB, evolved in MHB
  MIC_value: 4 µM
ROB08706 clone 3E1, run ABR06_3280_HS, evolved in HS_MHB
  MIC_value: 4 µM
ROB08706 clone 4D1, run ABR06_3280_MHB, evolved in MHB
  MIC_value: 8 to 16 µM
ROB08706 clone 4D2, run ABR06_3280_MHB, evolved in MHB
  MIC_value: 4 to 8 µM
ROB08706 clone 4E1, run ABR06_3280_HS, evolved in HS_MHB
  MIC_value: 4 µM
ROB08706 clone 5C1, run ABR06_3280_MHB, evolved in MHB
  MIC_value: 4 µM
ROB08706 clone 5D3, run ABR06_3280_MHB, evolved in MHB
  MIC_value: 4 to 8 µM
